Where two headings read alike, the source gives them in different places.
Assays:
[1] = system: S. aureus ATCC strains and MRSA; type: cell-based, Staphylococcus aureus
[2] = system: Staphylococcus epidermidis; type: cell-based
Protocol: (§1) It was also tested whether compounds #63 and #285 can inhibit other coagulase-negative Staphylococcus (CNS) including S. epidermidis, S. hominis, etc. […].

Staphylococcus hominis = type: cell-based
Protocol: as §1

[3] = system: Coagulase negative Staphylococcus; assay: Antibiotic susceptibility of coagulase negative Staphylococcus strains; type: cell-based
[4] = Se1 (Staphylococcus epidermidis)
[5] = Se2 (Staphylococcus epidermidis)
[6] = Se3 (Staphylococcus epidermidis)
[7] = Se4 (Staphylococcus epidermidis)
[8] = Se5 (Staphylococcus epidermidis)
[9] = CNS1 (Coagulase negative Staphylococcus)
[10] = CNS2 (Coagulase negative Staphylococcus)

Compound | Antibiotic susceptibility ([1]; S. aureus ATCC 25923) | Antibiotic susceptibility ([1]; S. aureus ATCC 29213) | Antibiotic susceptibility ([1]; S. aureus ATCC BAA 976) | Antibiotic susceptibility ([1]; S. aureus ATCC BAA 977) | Antibiotic susceptibility ([1]; S. aureus ATCC BAA 1026) | Antibiotic susceptibility ([1]; Sa1 (MRSA)) | Antibiotic susceptibility ([1]; Sa2 (MRSA)) | Antibiotic susceptibility ([1]; Sa3 (MRSA)) | Antibiotic susceptibility ([1]; Sa6 (MRSA)) | Antibiotic susceptibility ([1]; Sa7 (MRSA)) | Antibiotic susceptibility ([1]; Sa9 (MRSA)) | Antibiotic susceptibility ([1]; Sa11 (MRSA)) | Antibiotic susceptibility ([1]; Sa12 (MRSA)) | Antibiotic susceptibility ([1]; Sa14 (MRSA)) | Antibiotic susceptibility ([1]; Sa15 (MRSA)) | Antibiotic susceptibility ([1]; Sa16 (MRSA)) | Antibiotic susceptibility ([1]; Sa17 (MRSA)) | Antibiotic susceptibility ([1]; Sa18 (MRSA)) | Antibiotic susceptibility ([1]; Sa19 (MRSA)) | Antibiotic susceptibility ([1]; Sa20 (MRSA)) | also measured
CC(=O)NC[C@H]1CN(c2ccc(N3CCOCC3)c(F)c2)C(=O)O1 [LZD, linezolid] | S | S | S | S | S | S | S | S | S | S | S | S | S | S | S | S | S | S | S | S | Antibiotic susceptibility ([1]; Sa5 (MRSA)): S; Antibiotic susceptibility ([1]; Sa8 (MRSA)): S; Antibiotic susceptibility ([1]; Sa10 (MRSA)): S; Antibiotic susceptibility ([1]; Sa21 (MRSA)): S; Antibiotic susceptibility ([1]; Sa22 (MRSA)): S; Antibiotic susceptibility ([1]; Sa23 (MRSA)): S; Antibiotic susceptibility [2, 4]: S; Antibiotic susceptibility [2, 5]: S; Antibiotic susceptibility [2, 6]: S; Antibiotic susceptibility [2, 7]: S; Antibiotic susceptibility [2, 8]: S; Antibiotic susceptibility (Staphylococcus hominis; Sh1 (Staphylococcus hominis)): S; Antibiotic susceptibility (Staphylococcus hominis; Sh2 (Staphylococcus hominis)): S; Antibiotic susceptibility (Staphylococcus hominis; Sh3 (Staphylococcus hominis)): S; Antibiotic susceptibility [3, 9]: S; Antibiotic susceptibility [3, 10]: S
COc1c(N2C[C@@H]3CCCN[C@@H]3C2)c(F)cc2c(=O)c(C(=O)O)cn(C3CC3)c12 [MXF, moxifloxacin] | S | S | S | S | I | R | I | I | R | S | R | R | I | I | R | I | R | I | S | I | Antibiotic susceptibility ([1]; Sa5 (MRSA)): R; Antibiotic susceptibility ([1]; Sa8 (MRSA)): R; Antibiotic susceptibility ([1]; Sa10 (MRSA)): R; Antibiotic susceptibility ([1]; Sa21 (MRSA)): S; Antibiotic susceptibility ([1]; Sa22 (MRSA)): S; Antibiotic susceptibility ([1]; Sa23 (MRSA)): S; Antibiotic susceptibility [2, 4]: R; Antibiotic susceptibility [2, 5]: S; Antibiotic susceptibility [2, 6]: R; Antibiotic susceptibility [2, 7]: R; Antibiotic susceptibility [2, 8]: R; Antibiotic susceptibility (Staphylococcus hominis; Sh1 (Staphylococcus hominis)): R; Antibiotic susceptibility (Staphylococcus hominis; Sh2 (Staphylococcus hominis)): S; Antibiotic susceptibility (Staphylococcus hominis; Sh3 (Staphylococcus hominis)): S; Antibiotic susceptibility [3, 9]: S; Antibiotic susceptibility [3, 10]: R
Cc1onc(-c2ccccc2)c1C(=O)N[C@@H]1C(=O)N2[C@@H]1SC(C)(C)[C@@H]2C(=O)O [OXA, Oxacillin] | S | S | R | S | R | R | R | R | R | R | R | R | R | R | R | R | R | R | R | R | Antibiotic susceptibility ([1]; Sa5 (MRSA)): R; Antibiotic susceptibility ([1]; Sa8 (MRSA)): R; Antibiotic susceptibility ([1]; Sa10 (MRSA)): R; Antibiotic susceptibility ([1]; Sa21 (MRSA)): R; Antibiotic susceptibility ([1]; Sa22 (MRSA)): R; Antibiotic susceptibility ([1]; Sa23 (MRSA)): R; Antibiotic susceptibility [2, 4]: R; Antibiotic susceptibility [2, 5]: R; Antibiotic susceptibility [2, 6]: R; Antibiotic susceptibility [2, 7]: R; Antibiotic susceptibility [2, 8]: R; Antibiotic susceptibility (Staphylococcus hominis; Sh1 (Staphylococcus hominis)): R; Antibiotic susceptibility (Staphylococcus hominis; Sh2 (Staphylococcus hominis)): R; Antibiotic susceptibility (Staphylococcus hominis; Sh3 (Staphylococcus hominis)): R; Antibiotic susceptibility [3, 9]: R; Antibiotic susceptibility [3, 10]: R
CO[C@H]1/C=C/O[C@@]2(C)Oc3c(C)c(O)c4c(O)c(c(/C=N/N5CCN(C)CC5)c(O)c4c3C2=O)NC(=O)/C(C)=C\C=C\[C@H](C)[C@H](O)[C@@H](C)[C@@H](O)[C@@H](C)[C@H](OC(C)=O)[C@@H]1C [RIF, Rifampin] | S | S | S | S | S | S | S | S | S | S | S | S | S | S | R | S | S | S | S | S | Antibiotic susceptibility ([1]; Sa21 (MRSA)): S; Antibiotic susceptibility ([1]; Sa22 (MRSA)): S; Antibiotic susceptibility ([1]; Sa23 (MRSA)): S; MRSA strains resistant ([1]; number of resistant strains out of 21 MRSA strains): 1/21; Antibiotic susceptibility [2]: S; Antibiotic susceptibility (Staphylococcus hominis): S; Antibiotic susceptibility [3, 9]: S; Antibiotic susceptibility [3, 10]: S
CN(C)[C@@H]1C(O)=C(C(N)=O)C(=O)[C@@]2(O)C(O)=C3C(=O)c4c(O)cccc4[C@@](C)(O)[C@H]3C[C@@H]12 [TET, Tetracycline] | S | S | S | S | S | S | S | S | S | S | S | S | S | S | S | S | S | S | S | S | Antibiotic susceptibility ([1]; Sa5 (MRSA)): S; Antibiotic susceptibility ([1]; Sa21 (MRSA)): S; Antibiotic susceptibility ([1]; Sa22 (MRSA)): S; Antibiotic susceptibility ([1]; Sa23 (MRSA)): S; Antibiotic susceptibility [2, 4]: S; Antibiotic susceptibility [2, 5]: S; Antibiotic susceptibility [2, 6]: S; Antibiotic susceptibility [2, 7]: S; Antibiotic susceptibility [2, 8]: S; Antibiotic susceptibility (Staphylococcus hominis; Sh1 (Staphylococcus hominis)): R; Antibiotic susceptibility (Staphylococcus hominis; Sh2 (Staphylococcus hominis)): R; Antibiotic susceptibility (Staphylococcus hominis; Sh3 (Staphylococcus hominis)): S; Antibiotic susceptibility [3, 9]: S; Antibiotic susceptibility [3, 10]: S
CN(C)c1cc(NC(=O)CNC(C)(C)C)c(O)c2c1C[C@H]1C[C@H]3[C@H](N(C)C)C(O)=C(C(N)=O)C(=O)[C@@]3(O)C(O)=C1C2=O [TGC, Tigecycline] | S | S | S | S | S | S | S | S | S | S | S | S | S | S | S | S | S | S | S | S | Antibiotic susceptibility ([1]; Sa21 (MRSA)): S; Antibiotic susceptibility ([1]; Sa22 (MRSA)): S; Antibiotic susceptibility ([1]; Sa23 (MRSA)): S; Antibiotic susceptibility [2, 4]: S; Antibiotic susceptibility [2, 5]: S; Antibiotic susceptibility [2, 6]: S; Antibiotic susceptibility [2, 7]: S; Antibiotic susceptibility [2, 8]: S; Antibiotic susceptibility (Staphylococcus hominis; Sh1 (Staphylococcus hominis)): S; Antibiotic susceptibility (Staphylococcus hominis; Sh2 (Staphylococcus hominis)): S; Antibiotic susceptibility (Staphylococcus hominis; Sh3 (Staphylococcus hominis)): S; Antibiotic susceptibility [3, 9]: S; Antibiotic susceptibility [3, 10]: S
